Measurements as given in PubChem BioAssay (NCI).
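Test compounds were applied to cells in 96-well plates for 48 hours at 5 doses. GI50 = concentration required for 50% inhibition of growth. TGI denotes the concentration required for complete inhibition of growth.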

How the values were obtained:
Assay in all cases: NCI anticancer screen, dose series, 48 h
[1] = test system: BT-549 breast
[2] = test system: CCRF-CEM leukemia
[3] = test system: COLO 205 colon
[4] = test system: DU-145 prostate
[5] = test system: HCC-2998 colon
[6] = test system: HCT-15 colon
[7] = test system: HL-60(TB) leukemia
[8] = test system: HOP-62 NSCLC
[9] = test system: HT29 colon
[10] = test system: KM12 colon
[11] = test system: MCF7 breast
[12] = test system: MDA-MB-435
[13] = test system: MOLT-4 leukemia
[14] = test system: PC-3 prostate
[15] = test system: SK-MEL-2 melanoma
[16] = test system: SNB-19 CNS
[17] = test system: SW-620 colon
[18] = test system: UACC-257 melanoma
[19] = test system: 786-0 renal
[20] = test system: A498 renal
[21] = test system: A549 NSCLC
[22] = test system: ACHN renal
[23] = test system: CAKI-1 renal
[24] = test system: EKVX NSCLC
[25] = test system: HCT-116 colon
[26] = test system: HOP-92 NSCLC
[27] = test system: HS 578T breast
[28] = test system: IGROV1 ovarian
[29] = test system: K-562 leukemia
[30] = test system: M14 melanoma
[31] = test system: MALME-3M melanoma
[32] = test system: MDA-MB-231 breast
[33] = test system: NCI-H226 lung
[34] = test system: NCI-H460 lung
[35] = test system: NCI-H522 lung
[36] = test system: NCI/ADR-RES ovarian
[37] = test system: OVCAR-3 ovarian
[38] = test system: OVCAR-4 ovarian
[39] = test system: OVCAR-5 ovarian
[40] = test system: OVCAR-8 ovarian
[41] = test system: RPMI-8226 leukemia
[42] = test system: RXF 393 renal
[43] = test system: SF-268 CNS
[44] = test system: SF-295 CNS
[45] = test system: SF-539 CNS
[46] = test system: SK-MEL-28 melanoma
[47] = test system: SK-MEL-5 melanoma
[48] = test system: SK-OV-3 ovarian
[49] = test system: SN12C renal
[50] = test system: SNB-75 CNS
[51] = test system: SR leukemia
[52] = test system: T-47D breast
[53] = test system: TK-10 renal
[54] = test system: U251 CNS
[55] = test system: UACC-62 melanoma
[56] = test system: UO-31 renal

## O=C(CSc1nnc(-c2ccc(Cl)cc2)n1-c1ccccc1)Nc1ccc(Br)cc1
[1]
  GI50: > 50000 nM
  TGI: > 50000 nM
[2]
  GI50: > 50000 nM
  TGI: > 50 µM
[3]
  GI50: > 50000 nM
  TGI: > 50000 nM
[4]
  GI50: > 50000 nM
  TGI: > 50000 nM
[5]
  GI50: > 50000 nM
  TGI: > 50 µM
[6]
  GI50: > 50000 nM
  TGI: > 50 µM
[7]
  GI50: > 50000 nM
  TGI: > 50 µM
[8]
  GI50: 1870 nM
  TGI: > 50000 nM
[9]
  GI50: > 50000 nM
  TGI: > 50 µM
[10]
  GI50: > 50000 nM
  TGI: > 50000 nM
[11]
  GI50: > 50000 nM
  TGI: > 50 µM
[12]
  GI50: > 50000 nM
  TGI: > 50 µM
[13]
  GI50: > 50000 nM
  TGI: > 50 µM
[14]
  GI50: > 50000 nM
  TGI: > 50 µM
[15]
  GI50: > 50000 nM
  TGI: > 50000 nM
[16]
  GI50: 1890 nM
  TGI: > 50 µM
[17]
  GI50: > 50000 nM
  TGI: > 50 µM
[18]
  GI50: > 50000 nM
  TGI: > 50 µM

## COc1cccc(N2CCN(c3ncnc4c3[nH]c3ccc(F)cc34)C[C@@H]2C)c1
[19]
  GI50: 2050 nM
  TGI: 5.24 µM
[20]
  GI50: 2850 nM
  TGI: 8.03 µM
[21]
  GI50: 1900 nM
  TGI: 5.96 µM
[22]
  GI50: 1490 nM
  TGI: 3.72 µM
[1]
  GI50: 343 nM
  TGI: 1430 nM
[23]
  GI50: 1670 nM
  TGI: 5.58 µM
[2]
  GI50: 603 nM
  TGI: > 100 µM
[3]
  GI50: 1430 nM
  TGI: 2800 nM
[4]
  GI50: 1380 nM
  TGI: 2670 nM
[24]
  GI50: 1880 nM
  TGI: 6.16 µM
[5]
  GI50: 2610 nM
  TGI: 8.32 µM
[25]
  GI50: 1220 nM
  TGI: 3.13 µM
[6]
  GI50: 1750 nM
  TGI: 4.42 µM
[7]
  GI50: 1250 nM
  TGI: 5.19 µM
[8]
  GI50: 1230 nM
  TGI: 2760 nM
[26]
  GI50: 2280 nM
  TGI: 6.92 µM
[27]
  GI50: 1770 nM
  TGI: 8.52 µM
[9]
  GI50: 2790 nM
  TGI: 9.85 µM
[28]
  GI50: 1710 nM
  TGI: 4.67 µM
[29]
  GI50: 1120 nM
  TGI: > 100 µM
[10]
  GI50: 1220 nM
  TGI: 2730 nM
[30]
  GI50: 1360 nM
  TGI: 2730 nM
[31]
  GI50: 1360 nM
  TGI: 3.43 µM
[11]
  GI50: 1530 nM
  TGI: 3.45 µM
[32]
  GI50: 2270 nM
  TGI: 6.47 µM
[12]
  GI50: 1590 nM
  TGI: 3.18 µM
[13]
  GI50: 999 nM
  TGI: 4.65 µM
[33]
  GI50: 1320 nM
  TGI: 3.03 µM
[34]
  GI50: 2530 nM
  TGI: 7.34 µM
[35]
  GI50: 592 nM
  TGI: 2020 nM
[36]
  GI50: 1210 nM
  TGI: 4.35 µM
[37]
  GI50: 1500 nM
  TGI: 5.59 µM
[38]
  GI50: 852 nM
  TGI: 3.86 µM
[39]
  GI50: 2280 nM
  TGI: 6.16 µM
[40]
  GI50: 762 nM
  TGI: 2040 nM
[14]
  GI50: 912 nM
  TGI: 3.54 µM
[41]
  GI50: 492 nM
  TGI: 3.6 µM
[42]
  GI50: 2240 nM
  TGI: 5.45 µM
[43]
  GI50: 1980 nM
  TGI: 6.72 µM
[44]
  GI50: 1610 nM
  TGI: 3.35 µM
[45]
  GI50: 2270 nM
  TGI: 5.65 µM
[15]
  GI50: 1440 nM
  TGI: 2820 nM
[46]
  GI50: 1470 nM
  TGI: 2910 nM
[47]
  GI50: 1310 nM
  TGI: 2580 nM
[48]
  GI50: 2430 nM
  TGI: 7.47 µM
[49]
  GI50: 1170 nM
  TGI: 2460 nM
[16]
  GI50: 2550 nM
  TGI: 6.9 µM
[50]
  GI50: 1690 nM
  TGI: 3.06 µM
[51]
  GI50: 2710 nM
  TGI: > 100 µM
[17]
  GI50: 2270 nM
  TGI: 6.07 µM
[52]
  GI50: 310 nM
  TGI: 1640 nM
[53]
  GI50: 2140 nM
  TGI: 4.42 µM
[54]
  GI50: 2280 nM
  TGI: 6.08 µM
[18]
  GI50: 1880 nM
  TGI: 3.62 µM
[55]
  GI50: 716 nM
  TGI: 2120 nM
[56]
  GI50: 467 nM
  TGI: 1680 nM
